Laboratory results reported in patent US7550438B2, “Methods for production of growth-promoting proteins and peptides for kidney epithelial cells” (The University of Chicago, priority 1997, dated 2009).
Where “and” joins values, the source holds several entries; their conditions need not be identical. Equal values may be shown once. Read-outs that look alike come from different tables or passages of the source.

Assays:
[1] = tested on: monkey kidney epithelial cells of the BSC-1 line; experiment: Growth-promoting (mitogenic) activity: number of cells in BSC-1 cultures counted four days after addition; type: cell-based, African green monkey; conditions: for EC50: read-out: Growth-Stimulation K½; for stimulation of growth (increase in cell number compared to control at four days): agent alone at maximal mitogenic concentration (14-Ser 0.5 μg/ml; EGF, IGF-I 50 ng/ml; acidic FGF 100 pg/ml; basic FGF 1,000 pg/ml; vasopressin 75 pg/ml; K 10.4 mM; Na 180 mM)
[2] = tested on: kidneys of rats given mercuric chloride; experiment: BrdU labeling of DNA synthesis in kidneys of rats given mercuric chloride; type: in vivo, rat; conditions: 14-Ser 100 μg 24 hours before mercuric chloride; 1 hour BrdU labeling 24 hours after
Method: To determine if the beneficial effects of 14-Ser peptide on survival and renal function were the result of the mitogenic action of the peptide, DNA synthesis was measured in the kidneys of rats given mercuric chloride. 5-Bromo-2′-deoxyuridine (BrdU), a nonradioactive analog of thymidine that is incorporated into DNA was used to label nuclei. A monoclonal antibody to BrdU and diamidobenzidene staining were used to detect nuclei undergoing DNA synthesis in histological sections of renal tissue. BrdU was dissolved in 20% ethanol and was injected intra-peritoneally 23 hours after administration of mercuric chloride. One hour later the kidneys were quickly perfused with a warm solution of phosphate-buffered saline via an aortic catheter to eliminate red blood cells from the organ and maintain potency of the renal tubules. The capsule was removed from the kidneys which were the bisected longitudinally, and fixed in formalin for 4 hours, and then in 70% ethanol. Tissue sections were prepared and BrdU-labeled nuclei were detected as described above.
In the kidneys of a rats given mercuric chloride, extensive necrosis of tubular cells of the terminal portion (S3) of the proximal nephron was observed, as expected in this well-characterized model system. The extent of necrosis was somewhat variable from rat-to-rat but was always confined to the aglomerular cortex. […]

AQPYPQGNHEASYG
EC50 ([1]; + heparin (1 μg/ml)): 40 nM
EC50 ([1]; + keratan sulfate (2 μg/ml for 5 minutes prior to peptide, b158; 10 μg/ml)): 67 nM
stimulation of growth (increase in cell number compared to control at four days) [1]: 25%
stimulation of growth (increase in cell number compared to control at four days) ([1]; listed as 14-Ser Peptide): 25-30%
stimulation of growth (increase in cell number compared to control at four days) ([1]; listed as 14-Ser peptide): 25-30% and 25%
EC50 ([1]; peptide alone, BSC-1 cells, 4 days in culture): 126 nM
BrdU-labeled nuclei adjacent to the zone of tubular cell necrosis [2]: many more labeled nuclei
